# Source: ChEMBL document CHEMBL4118125, “MK-8325: A silyl proline-containing NS5A inhibitor with pan-genotype activity for treatment of HCV” (Bioorg Med Chem Lett, 2018)
# Activity calls are given as the source filed them. The calls are words filed in the database; no cut-off is given here.
# How the values were obtained:
# Homo sapiens = species on record: Homo sapiens; assay: Inhibition of sodium channel (unknown origin) at 30 uM
# Cytochrome P450 3A4 = Cytochrome P450 3A4 (Homo sapiens, UniProt P08684); assay: Inhibition of CYP3A4 (unknown origin); assay type: ADME
# Cytochrome P450 2C9 = Cytochrome P450 2C9 (Homo sapiens, UniProt P11712); assay: Inhibition of CYP2C9 (unknown origin); assay type: ADME
# Cytochrome P450 2D6 = Cytochrome P450 2D6 (Homo sapiens, UniProt P10635); assay: Inhibition of CYP2D6 (unknown origin); assay type: ADME
# [1] = target: T1, Nuclear receptor subfamily 1 group I member 2 (Homo sapiens, UniProt O75469); assay: Activation of PXR (unknown origin); assay type: ADME
# T1 sequence (O75469 whole entry): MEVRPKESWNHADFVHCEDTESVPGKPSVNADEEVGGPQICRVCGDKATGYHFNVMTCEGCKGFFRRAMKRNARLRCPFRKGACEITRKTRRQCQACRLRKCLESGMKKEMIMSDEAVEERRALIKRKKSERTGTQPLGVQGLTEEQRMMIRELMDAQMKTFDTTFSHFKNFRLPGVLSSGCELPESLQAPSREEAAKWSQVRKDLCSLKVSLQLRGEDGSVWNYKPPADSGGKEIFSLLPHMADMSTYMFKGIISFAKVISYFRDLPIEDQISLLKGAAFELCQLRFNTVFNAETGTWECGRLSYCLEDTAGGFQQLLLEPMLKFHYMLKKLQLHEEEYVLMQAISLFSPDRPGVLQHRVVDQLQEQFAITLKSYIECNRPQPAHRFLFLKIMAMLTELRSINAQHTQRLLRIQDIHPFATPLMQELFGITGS
# [2] = target: T1, Nuclear receptor subfamily 1 group I member 2; assay: Activation of PXR in human hepatocytes assessed as induction of […] mRNA expression; assay type: ADME, cell-based
# [3] = Cytotoxicity in human HuH7 replicon cells by MTS assay; assay type: cell-based, Huh-7
# [4] = Therapeutic index, ratio of CC50 for human HuH7 replicon cells to EC50 for inhibition of HCV NS5A in HCV genotype 1b assessed as reduction in viral replication by cell based replicon assay; assay type: toxicity; conditions: read-out: Ratio CC50/EC50
# [5] = Protein binding in rat plasma; assay type: ADME, cell-free; conditions: read-out: PPB
# [6] = Protein binding in dog plasma; assay type: ADME, cell-free, Canis lupus familiaris; conditions: read-out: PPB
# [7] = Protein binding in cynomolgus monkey plasma; assay type: ADME, cell-free, Macaca fascicularis; conditions: read-out: PPB
# [8] = Ratio of drug level in liver to plasma of rat; assay type: ADME, cell-free
# [9] = Ratio of drug level in liver to plasma of dog; assay type: ADME, cell-free, Canis lupus familiaris
# [10] = Ratio of drug level in liver to plasma of cynomolgus monkey; assay type: ADME, cell-free, Macaca fascicularis
# [11] = Ratio of drug level in brain to plasma of rat; assay type: ADME, cell-free; conditions: read-out: BPR
# [12] = Ratio of drug level in brain to plasma of dog; assay type: ADME, cell-free, Canis lupus familiaris; conditions: read-out: BPR
# [13] = Ratio of drug level in brain to plasma of cynomolgus monkey; assay type: ADME, cell-free, Macaca fascicularis; conditions: read-out: BPR
# [14] = Drug excretion in rat urine assessed as unchanged compound level at 2.5 mg/kg, iv; assay type: ADME, organism-based; conditions: read-out: Drug excretion
# [15] = Drug excretion in rat bile assessed as unchanged compound level at 2.5 mg/kg, iv; assay type: ADME, organism-based; conditions: read-out: Drug excretion
# [16] = Drug excretion in rat feces assessed as unchanged compound level at 2.5 mg/kg, iv; assay type: ADME, organism-based; conditions: faeces, read-out: Drug excretion
# Hepatocyte [17] = assay: Stability in rat hepatocytes assessed as compound metabolism; assay type: ADME, cell-based
# [18] = Stability in rat liver microsomes assessed as compound metabolism; assay type: ADME, microsome
# Hepatocyte [19] = assay: Stability in dog hepatocytes assessed as compound metabolism; assay type: ADME, cell-based, Canis lupus familiaris
# [20] = Stability in dog liver microsomes assessed as compound metabolism; assay type: ADME, Canis lupus familiaris, microsome
# Hepatocyte [21] = assay: Stability in cynomolgus monkey hepatocytes assessed as compound metabolism; assay type: ADME, cell-based, Macaca fascicularis
# [22] = Stability in cynomolgus monkey liver microsomes assessed as compound metabolism; assay type: ADME, Macaca fascicularis, microsome
# Hepatocyte [23] = assay: Stability in human hepatocytes assessed as compound metabolism; assay type: ADME, cell-based
# [24] = Stability in human liver microsomes assessed as compound metabolism; assay type: ADME, microsome
# [25] = Drug excretion in dog assessed as unchanged compound level at 1 mg/kg, iv; assay type: ADME, organism-based, Canis lupus familiaris; conditions: in vivo
# [26] = target: T2, Solute carrier organic anion transporter family member 1B1 (Homo sapiens, UniProt Q9Y6L6); assay: Inhibition of human OATP1B1; assay type: ADME
# T2 sequence (Q9Y6L6 whole entry): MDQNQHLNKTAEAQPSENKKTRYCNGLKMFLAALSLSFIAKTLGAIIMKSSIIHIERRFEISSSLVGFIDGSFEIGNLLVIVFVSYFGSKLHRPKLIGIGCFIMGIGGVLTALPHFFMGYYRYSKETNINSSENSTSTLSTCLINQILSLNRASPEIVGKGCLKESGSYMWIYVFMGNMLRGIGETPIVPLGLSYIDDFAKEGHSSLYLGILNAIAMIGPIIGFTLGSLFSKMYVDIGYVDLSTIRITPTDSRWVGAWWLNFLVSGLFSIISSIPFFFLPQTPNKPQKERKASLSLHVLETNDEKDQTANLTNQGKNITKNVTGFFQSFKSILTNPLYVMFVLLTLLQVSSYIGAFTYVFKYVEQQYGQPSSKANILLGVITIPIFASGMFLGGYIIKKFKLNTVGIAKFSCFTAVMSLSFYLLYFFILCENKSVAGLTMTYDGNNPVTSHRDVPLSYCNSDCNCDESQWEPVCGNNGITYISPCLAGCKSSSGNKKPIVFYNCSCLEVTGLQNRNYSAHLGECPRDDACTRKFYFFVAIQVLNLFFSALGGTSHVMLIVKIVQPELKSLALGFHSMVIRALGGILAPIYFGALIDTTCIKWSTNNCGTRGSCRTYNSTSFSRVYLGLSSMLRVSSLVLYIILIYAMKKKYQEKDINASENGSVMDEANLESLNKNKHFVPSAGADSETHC
# Rattus norvegicus [27] = assay: Clearance in Sprague-Dawley rat at 2.5 mg/kg, iv by LC-MS/MS method relative to liver blood flow; assay type: ADME, organism-based; conditions: in vivo
# Canis familiaris [28] = assay: Clearance in beagle dog at 1 mg/kg, iv by LC-MS/MS method relative to liver blood flow; assay type: ADME, organism-based, Canis lupus familiaris; conditions: in vivo
# Cynomolgus monkey = assay: Clearance in cynomolgus monkey at 1 mg/kg, iv by LC-MS/MS method relative to liver blood flow; assay type: ADME, organism-based, Macaca fascicularis; conditions: in vivo
# [29] = Permeability in MDCK2 cells; assay type: ADME, cell-based, Canis lupus familiaris, MDCK-II; conditions: dog, MDCK; read-out: permeability
# [30] = Dissociation constant, pKa of the compound; assay type: physicochemical
# [31] = Solubility in pH 3.1 buffer; assay type: physicochemical
# [32] = Solubility in pH 7.3 buffer; assay type: physicochemical
# [33] = target: Voltage-gated inwardly rectifying potassium channel KCNH2 (Homo sapiens, UniProt Q12809); assay: Inhibition of human ERG at 30 uM
# [34] = target: Voltage-gated L-type calcium channel (Homo sapiens, UniProt Q13936+Q13698+Q01668+O60840); assay: Inhibition of L-type calcium channel (unknown origin) at 30 uM; assay type: protein assay
# Salmonella typhimurium = assay: Genotoxicity in Salmonella typhimurium by Ames test; assay type: toxicity, organism-based; conditions: salmonella enterica subsp. enterica serovar typhimurium
# [35] = Toxicity in female rat up to 30 mg/kg/day, po for 4 days; assay type: organism-based; conditions: in vivo
# Rattus norvegicus [36] = assay: Toxicity in male rat assessed as increase in monocyte level at 100 mg/kg/day, po for 7 days; assay type: organism-based; conditions: in vivo, 168 h
# Rattus norvegicus [37] = assay: Toxicity in male rat assessed as increase in monocyte level at 750 mg/kg/day, po for 7 days; assay type: organism-based; conditions: in vivo, 168 h
# Rattus norvegicus [38] = assay: Toxicity in male rat assessed as induction of mortality up to 750 mg/kg/day, po for 7 days; assay type: organism-based; conditions: in vivo, 168 h
# Canis familiaris [39] = assay: Toxicity in male dog up to 750 mg/kg/day, po for 7 days; assay type: organism-based, Canis lupus familiaris; conditions: in vivo, 168 h
# [40] = target: T3, PXR (Nuclear receptor subfamily 1 group I member 2) (Homo sapiens, UniProt O75469); assay: Activation of PXR (unknown origin) relative to rifampicin; assay type: ADME; conditions: read-out: FC
# T3 sequence (O75469 whole entry): T1 sequence (O75469 whole entry)
# Chain of Cytochrome P450 3A4 (P08684 whole entry): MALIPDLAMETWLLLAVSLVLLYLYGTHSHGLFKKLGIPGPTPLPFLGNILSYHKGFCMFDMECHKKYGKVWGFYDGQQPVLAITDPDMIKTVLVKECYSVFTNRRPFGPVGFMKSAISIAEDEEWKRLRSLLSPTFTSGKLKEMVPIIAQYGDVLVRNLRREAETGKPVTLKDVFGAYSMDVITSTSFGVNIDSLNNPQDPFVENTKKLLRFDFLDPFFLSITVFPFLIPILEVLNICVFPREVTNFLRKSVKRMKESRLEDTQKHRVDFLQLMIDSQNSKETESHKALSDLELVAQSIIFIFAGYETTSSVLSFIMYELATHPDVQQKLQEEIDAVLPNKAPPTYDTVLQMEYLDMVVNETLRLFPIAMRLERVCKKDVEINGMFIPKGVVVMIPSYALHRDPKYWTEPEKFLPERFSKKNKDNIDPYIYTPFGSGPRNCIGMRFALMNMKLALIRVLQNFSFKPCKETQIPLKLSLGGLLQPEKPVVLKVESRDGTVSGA
# Chain of Cytochrome P450 2D6 (P10635 whole entry): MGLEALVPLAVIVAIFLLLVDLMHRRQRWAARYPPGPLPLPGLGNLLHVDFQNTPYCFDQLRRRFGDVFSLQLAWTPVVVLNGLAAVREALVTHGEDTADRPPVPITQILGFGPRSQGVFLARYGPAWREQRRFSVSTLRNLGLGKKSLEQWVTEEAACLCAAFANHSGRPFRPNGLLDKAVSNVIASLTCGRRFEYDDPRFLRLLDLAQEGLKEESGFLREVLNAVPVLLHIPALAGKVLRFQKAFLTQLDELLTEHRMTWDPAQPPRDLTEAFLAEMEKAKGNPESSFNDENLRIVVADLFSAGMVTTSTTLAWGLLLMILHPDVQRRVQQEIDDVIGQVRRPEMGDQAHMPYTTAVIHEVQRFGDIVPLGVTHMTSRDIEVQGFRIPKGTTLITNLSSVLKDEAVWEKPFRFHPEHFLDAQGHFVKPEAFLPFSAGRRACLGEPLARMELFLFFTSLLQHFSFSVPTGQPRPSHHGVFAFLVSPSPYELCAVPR
# Chain of Voltage-gated inwardly rectifying potassium channel KCNH2 (Q12809 whole entry): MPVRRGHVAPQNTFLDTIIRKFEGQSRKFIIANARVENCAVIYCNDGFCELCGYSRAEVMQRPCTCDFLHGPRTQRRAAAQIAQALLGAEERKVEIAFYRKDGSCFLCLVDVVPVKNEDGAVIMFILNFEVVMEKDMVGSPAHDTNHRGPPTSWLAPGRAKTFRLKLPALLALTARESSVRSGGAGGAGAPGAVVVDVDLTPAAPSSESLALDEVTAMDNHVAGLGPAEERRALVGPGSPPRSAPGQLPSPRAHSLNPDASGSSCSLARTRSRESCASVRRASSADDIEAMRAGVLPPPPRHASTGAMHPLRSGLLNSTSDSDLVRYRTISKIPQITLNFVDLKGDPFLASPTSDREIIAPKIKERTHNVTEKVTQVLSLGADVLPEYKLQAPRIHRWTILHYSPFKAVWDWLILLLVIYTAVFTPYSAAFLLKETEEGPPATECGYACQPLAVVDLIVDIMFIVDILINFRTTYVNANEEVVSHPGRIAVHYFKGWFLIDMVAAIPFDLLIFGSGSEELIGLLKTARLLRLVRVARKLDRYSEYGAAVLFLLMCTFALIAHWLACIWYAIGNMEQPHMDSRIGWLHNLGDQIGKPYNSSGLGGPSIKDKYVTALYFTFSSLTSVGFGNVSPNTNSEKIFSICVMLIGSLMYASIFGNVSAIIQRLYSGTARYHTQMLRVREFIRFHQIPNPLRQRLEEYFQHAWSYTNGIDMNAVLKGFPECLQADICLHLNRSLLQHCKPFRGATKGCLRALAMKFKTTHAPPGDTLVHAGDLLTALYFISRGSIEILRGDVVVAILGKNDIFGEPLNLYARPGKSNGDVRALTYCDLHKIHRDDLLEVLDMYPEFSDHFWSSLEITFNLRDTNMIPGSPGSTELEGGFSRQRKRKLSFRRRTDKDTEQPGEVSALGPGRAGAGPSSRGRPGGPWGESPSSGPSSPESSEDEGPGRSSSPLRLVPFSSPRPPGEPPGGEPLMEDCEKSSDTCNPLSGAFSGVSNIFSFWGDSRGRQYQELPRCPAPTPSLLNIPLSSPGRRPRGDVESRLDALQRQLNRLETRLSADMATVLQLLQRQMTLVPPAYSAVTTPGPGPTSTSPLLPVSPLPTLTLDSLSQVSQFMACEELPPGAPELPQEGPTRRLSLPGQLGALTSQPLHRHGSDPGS
# Chain of Cytochrome P450 2C9 (P11712 whole entry): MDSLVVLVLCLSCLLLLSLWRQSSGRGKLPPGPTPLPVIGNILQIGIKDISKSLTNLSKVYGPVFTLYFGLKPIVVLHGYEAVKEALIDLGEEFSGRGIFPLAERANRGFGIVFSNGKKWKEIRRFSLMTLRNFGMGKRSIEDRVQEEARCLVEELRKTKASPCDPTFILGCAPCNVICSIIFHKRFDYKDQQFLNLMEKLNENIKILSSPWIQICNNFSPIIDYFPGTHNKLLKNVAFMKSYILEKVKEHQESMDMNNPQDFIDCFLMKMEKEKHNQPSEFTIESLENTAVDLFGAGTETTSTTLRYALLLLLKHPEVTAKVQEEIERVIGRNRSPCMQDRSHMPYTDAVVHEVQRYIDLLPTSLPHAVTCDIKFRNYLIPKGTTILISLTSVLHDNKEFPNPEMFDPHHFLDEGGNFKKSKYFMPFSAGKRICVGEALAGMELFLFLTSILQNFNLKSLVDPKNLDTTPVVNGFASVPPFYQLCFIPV
structure (smiles),measurement,setting,value
COC(=O)N[C@H](C(=O)N1CC(F)(F)C[C@H]1c1ncc(-c2ccc(-c3ccc4c(ccc5nc([C@@H]6C[Si](C)(C)CN6C(=O)[C@@H](NC(=O)OC)C(C)C)[nH]c54)c3)cc2)[nH]1)C(C)C [listing 1 of 2 here],inhibition,Homo sapiens,inactive
COC(=O)N[C@H](C(=O)N1CC(F)(F)C[C@H]1c1ncc(-c2ccc(-c3ccc4c(ccc5nc([C@@H]6C[Si](C)(C)CN6C(=O)[C@@H](NC(=O)OC)C(C)C)[nH]c54)c3)cc2)[nH]1)C(C)C [listing 2 of 2 here],INH,Cytochrome P450 3A4,> 20 µM
same,INH,Cytochrome P450 2C9,> 20 µM
same,INH,Cytochrome P450 2D6,> 20 µM
same,Activity,[1],> 10 µM
same,Activity,[2],> 3 µM
same,CC50,[3],> 25 µM
same,selectivity ratio,[4],> 8e+06
same,fraction unbound,[5],< 0.001
same,fraction unbound,[6],< 0.001
same,fraction unbound,[7],< 0.001
same,Kp,[8],27
same,Kp,[9],27
same,Kp,[10],27
same,Kp,[11],0.04
same,Kp,[12],0.04
same,Kp,[13],0.04
same,dose excreted,[14],27%
same,dose excreted,[15],27%
same,dose excreted,[16],27%
same,Stability,Hepatocyte [17],Stable
same,Stability,[18],Stable
same,Stability,Hepatocyte [19],Stable
same,Stability,[20],Stable
same,Stability,Hepatocyte [21],Stable
same,Stability,[22],Stable
same,Stability,Hepatocyte [23],Stable
same,Stability,[24],Stable
same,Drug excretion,[25],Active
same,inhibition (INH),[26],Active
same,clearance,Rattus norvegicus [27],3 to 7%
same,clearance,Canis familiaris [28],3 to 7%
same,clearance,Cynomolgus monkey,3 to 7%
same,Papp,[29],0.8 ×10⁻⁶ cm/s
same,pKa,[30],3.57 to 5.69
same,solubility,[31],65 µg/mL
same,solubility,[32],2.7 µg/mL
same,inhibition (INH),[33],Not Active
same,inhibition (INH),[34],Not Active
same,Activity,Salmonella typhimurium,Non-Toxic
same,NOAEL at 96 h,[35],> 30 mg/kg/day
same,Activity,Rattus norvegicus [36],Toxic
same,Activity,Rattus norvegicus [37],Toxic
same,Activity,Rattus norvegicus [38],Non-Toxic
same,Activity,Canis familiaris [39],Non-Toxic
same,fold induction,[40],0.2
